Assay results reported in patent US8642516B2, “Chemically-defined arrays for screening cell-substrate interactions” (Wisconsin Alumni Research Foundation, priority 2012, dated 2014).

Assays:
HUVEC [1] = test: HUVEC attachment to SAM spots presenting mutant ligand (Example 8); type: cell-based, human
Procedure: Specifically, SAM array spots presenting mixed ligands were prepared as described above. SAM arrays presenting varied ligand densities of covalently immobilized VEGF receptor-binding peptide ([…], here referred to as “VR-BP”; SEQ ID NO:17) and varied ligand densities of the fibronectin-derived cell adhesion peptide (GRGDSP, SEQ ID NO:18) were used to probe for changes in HUVEC attachment, proliferation and tubulogenesis. Control over individual ligand density was achieved by mixing scrambled VR-BP and mutant GRGESP (SEQ ID NO:19) with functional VR-BP or GRGDSP (SEQ ID NO:18) peptides, respectively. Therefore, in a typical SAM array, SAMs were locally formed within spots using an alkanethiolate mixture of 94% HS—C11-EG3-OH and 6% HS—C11-EG6-COOH to create substrates with a total of 6% carboxylate groups for peptide conjugation. Next, to create a spot presenting 5% GRGDSP (SEQ ID NO:18) and 1% VR-BP, a 300 μM peptide solution with 250 μM GRGDSP (SEQ ID NO:18) and 50 μM VR-BP was used during peptide conjugation. […] As mentioned previously, ligand concentrations were measured using UV/Vis since all peptides either contained residues that absorbed strongly at 280 nm, or were engineered to contain tryptophan residues in the poly-glycine tail. […]

hMSC = hMSC surface coverage over time on SAM spots presenting GRGDSP with BR-BP and HPG-BP; type: cell-based, human; conditions: low GRGDSP density SAM spots, cultured 20 days
Source text: In this SAM array approach, each spot was designed to contain the same total molar density (mol/cm^2) of peptide from spot to spot. Therefore, control over individual peptide density was achieved by mixing scrambled BR-BP and HPG-BP and mutant GRGESP (SEQ ID NO:19) peptides with functional BR-BP, HPG-BP or GRGDSP (SEQ ID NO:18) peptides, respectively. Therefore, in a typical SAM array, SAMs were locally formed within spots using an alkanethiolate mixture of 95% HS—C11-EG3-OH and 5% HS—C11-EG6-COOH to create substrates with a total of 5% carboxylate groups for peptide conjugation. Here, “X %” refers to the mole percent of alkanethiolate present during SAM formation and subsequently the approximate amount of an alkanethiolate present on the surface after SAM formation. To regulate the density of active peptide present in each spot, mutant and scramble versions of peptides were included during peptide conjugation. […] As mentioned previously, peptide concentrations were easily measured using UV/Vis since all peptides either contained residues that absorbed strongly at 280 nm, or were engineered to contain tryptophan residues in the poly-glycine tail. […]

HUVEC [2] = test: HUVEC proliferation (Click-it EdU) in response to soluble morphogens on SAM arrays; type: cell-based, human; conditions: soluble, 10 ng/ml, 24 hours, m199 with 2% FBS, highest ligand density spots
Procedure: Specifically, SAM array spots presenting mixed ligands were prepared as described above. SAM arrays presenting varied ligand densities of covalently immobilized VEGF receptor-binding peptide ([sequence], here referred to as “VR-BP”; SEQ ID NO:17) and varied ligand densities of the fibronectin-derived cell adhesion peptide (GRGDSP, SEQ ID NO:18) were used to probe for changes in HUVEC attachment, proliferation and tubulogenesis. Control over individual ligand density was achieved by mixing scrambled VR-BP and mutant GRGESP (SEQ ID NO:19) with functional VR-BP or GRGDSP (SEQ ID NO:18) peptides, respectively. Therefore, in a typical SAM array, SAMs were locally formed within spots using an alkanethiolate mixture of 94% HS—C11-EG3-OH and 6% HS—C11-EG6-COOH to create substrates with a total of 6% carboxylate groups for peptide conjugation. Next, to create a spot presenting 5% GRGDSP (SEQ ID NO:18) and 1% VR-BP, a 300 μM peptide solution with 250 μM GRGDSP (SEQ ID NO:18) and 50 μM VR-BP was used during peptide conjugation. Likewise, to create a spot presenting 2.5% GRGDSP (SEQ ID NO:18) and 0.1% VR-BP, a 300 μM peptide solution with 125 μM GRGDSP (SEQ ID NO:18), 125 μM GRGESP (SEQ ID NO:19), 5 μM VR-BP and 45 μM scrambled peptide was used during peptide conjugation. In this manner, the amount of active ligand could be varied between spots while holding the total ligand content constant.
Passage 2 HUVECs were expanded at low cell density (less than 70% confluence) on tissue culture polystyrene to no more than 14 population doublings. During HUVEC expansion, cells were cultured in medium 199 (m199, Mediatech, Manassas, Va.) containing 1% penicillin/streptomycin (Hyclone, Logan, Utah) and supplemented with Clonetics EGM-2 BullitKit (Lonza Walkersville, Inc., Walkersville, Md.) containing Hydrocortisone, hFGF-B, VEGF, R3-IGF-1, Ascorbic Acid, Heparin, FBS, hEGF, GA-1000 growth supplements. […]

HUVEC [3] = test: HUVEC attachment to SAM spots presenting immobilized VR-BP; type: cell-based, human; conditions: immobilized 1% VR-BP vs scrambled peptide, highest GRGDSP densities, 1 hour
Procedure: (§1) Passage 2 HUVECs were expanded at low cell density (less than 70% confluence) on tissue culture polystyrene to no more than 14 population doublings. During HUVEC expansion, cells were cultured in medium 199 (m199, Mediatech, Manassas, Va.) containing 1% penicillin/streptomycin (Hyclone, Logan, Utah) and supplemented with Clonetics EGM-2 BullitKit (Lonza Walkersville, Inc., Walkersville, Md.) containing Hydrocortisone, hFGF-B, VEGF, R3-IGF-1, Ascorbic Acid, Heparin, FBS, hEGF, GA-1000 growth supplements. NIH 3T3 cells were expanded in Dulbecco's modified eagles medium (DMEM, Mediatech, Manassas, Va.) containing 1% penicillin/streptomycin and supplemented with 5% cosmic calf serum (Hyclone, Logan, Utah). Before seeding on SAM arrays, HUVECs in cell culture flasks were starved for 24 hours in medium containing 2% FBS and then removed from the plate using a 0.05% trypsin solution and resuspended in m199 with 2% FBS. Cell suspension was seeded onto SAM arrays in sterile polystyrene Petri dishes and incubated in a humid environment at 37° C. and 5% CO2. After allowing cells to attach for ˜1 hr, arrays were dipped in warm m199 with 2% FBS to remove loosely attached cells and then transferred to a rectangular multidish (Thermo Scientific/Nunc, Rochester, N.Y.) containing warm media with 2% FBS and imaged ˜2 hours later serving as “0 hr”. […]

NIH 3T3 fibroblasts = test: NIH 3T3 attachment to SAM spots presenting immobilized VR-BP; type: cell-based; conditions: immobilized 1% VR-BP vs scrambled peptide, 1 hour
Procedure: as §1

HUVEC [4] = test: HUVEC survival and proliferation on SAM arrays presenting immobilized VR-BP with VEGF / SU5416; type: cell-based, human
Procedure: as §1

HUVEC [5] = test: Endothelial tubulogenesis on SAM spots with matrigel overlay; type: cell-based, human
Procedure: Specifically, SAM arrays seeded overnight with 50,000 HUVECs/cm^2 were rinsed with warm media and then flipped over onto cold matrigel (Growth factor reduced matrigel, BD Biosciences, Bedford, Mass.) in a rectangular multidish well containing varied concentrations of soluble recombinant VEGF. Matrigel was allowed to gel for 5 minutes, and then the array and matrigel layer were covered with warm m199 with 2% FBS. Arrays were then placed in a TIZ Tokai Hit incubated, humidified stage at 37° C. and 5% CO2 and each array spot was imaged using phase contrast microscopy every 15 minutes for 48 hours. Image analysis was performed using NIS Elements software. The total cell area and length of individual objects were measured in each array spot at 24 hours after seeding. To measure mean length of capillary-like structures, each image was contrasted and thresholded using a standard method to isolate elongated objects for automated length measurements. All objects with a length less than 20 μm were excluded from length measurements. To measure total area occupied by cells, the images were contrasted and thresholded to isolate all cell bodies from the background for automated area measurements. Objects with a length less than 10 μm were excluded from area measurements. Tubulogenesis in each spot was quantified by normalizing the mean length of objects to total cell area in each array spot. SAM array spots were imaged using a Nikon Eclipse Ti inverted microscope with a 10×PhL objective, equipped with Nikon's Perfect Focus System. 10× images were stitched using Nikon NIS Elements software to capture entire array spots and cell counting was performed using the cell counting application in NIS Elements. Statistical analysis of all data sets was performed using a two-tailed student's t-test, where p<0.05 is used to denote statistical significance.

## GRGESP [mutant peptide mixed with GRGDSP to control ligand density]
HUVEC [1]
  HUVEC attachment: did not promote HUVEC attachment

## KIPKASSVPTEL [BR-BP]
hMSC
  hMSC surface coverage: maintained hMSC surface coverage

## KLTWQELYQLKYKGI [VR-BP]
HUVEC [2]
  HUVEC proliferation (EdU incorporation) compared to cells without stimulation: significant increases in proliferation
HUVEC [3]
  HUVEC attachment: significantly decreased
NIH 3T3 fibroblasts
  NIH 3T3 attachment: no effect
HUVEC [4]; immobilized 1% VR-BP, in presence of soluble VEGF, high and low ligand densities
  HUVEC proliferation: inhibited proliferation
HUVEC [4]; immobilized VR-BP at 1% density, without soluble VEGF or in presence of SU5416
  HUVEC survival: decreased HUVEC survival
HUVEC [5]; 1% VR-BP vs 0% VR-BP, presence and absence of soluble VEGF
  tubulogenesis (average tubule length per total cell area): increased tubulogenesis
HUVEC [5]; 1% VR-BP vs lower VR-BP surfaces, absence of soluble VEGF
  tubulogenesis: significantly increased

## VEGF
HUVEC [2]
  HUVEC proliferation (EdU incorporation) compared to cells without stimulation: increased HUVEC proliferation
HUVEC [5]; soluble VEGF protein
  tubulogenesis (average tubule length per total cell area): decreased tubulogenesis
